Assay results taken from PubChem BioAssay (NCI).
Where “and” joins values, the source holds several entries; their conditions need not be identical. Identical values can stand only once.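 Tested at 5 concentrations; 48 h exposure; 96-well plates; endpoints linearly interpolated, else capped at highest concentration. GI50 marks 50% less growth. TGI marks complete inhibition of growth.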

How the values were obtained:
Assay in all cases: NCI anticancer screen, dose series, 48 h
[1] = test system: KM12 colon
[2] = test system: IGROV1 ovarian
[3] = test system: SK-OV-3 ovarian
[4] = test system: SK-MEL-28 melanoma
[5] = test system: DU-145 prostate
[6] = test system: SF-268 CNS
[7] = test system: MDA-N
[8] = test system: CCRF-CEM leukemia
[9] = test system: 786-0 renal
[10] = test system: RXF 393 renal

| SMILES | TGI [1] | TGI [2] | TGI [3] | TGI [4] | TGI [5] | TGI [6] | TGI [7] | TGI [8] | TGI [9] | TGI [10] | GI50 [1] | GI50 [2] | GI50 [3] | GI50 [4] | GI50 [6] | GI50 [7] |
| --- | --- | --- | --- | --- | --- | --- | --- | --- | --- | --- | --- | --- | --- | --- | --- | --- |
| CC(=O)Oc1cc(OC(C)=O)c2c(C)cc(=O)oc2c1 | > 100 µM | > 100 µM | > 100 µM | > 100 µM | > 100 µM | > 100 µM | > 100 µM | > 100 µM | > 100 µM | – | – | – | – | – | – | – |
| CCOc1ccc(/C=C2\NC(=S)N(/C=C3\C(=O)Oc4ccccc4C3=O)C2=O)cc1 | 69.2 µM | 61.7 µM | 38.8 µM | 83.9 µM | 57.7 µM | 68 µM | – | 40.4 µM | 39.5 µM | 33.6 µM | – | – | – | – | – | – |
| CC(=O)N(C(C)=O)n1c(Cc2ccc(C)cc2)nn(C(C)=O)c1=O | > 100 µM | > 100 µM | > 100 µM | > 100 µM | > 100 µM | > 100 µM | > 100 µM | > 100 µM | > 100 µM | – | – | – | – | – | – | – |
| COc1ccc2[nH]c(C(=O)N3CC(CCl)c4c3cc(N)c3ccccc43)cc2c1 (configuration not stated) | 0.263 µM | 18.2 µM | 0.964 µM | – | < 0.01 µM | < 0.01 µM | < 0.01 µM | 0.0681 µM | – | – | – | – | – | – | – | – |
| N[C@H](CCC(=O)NCP(=O)(O)O)C(=O)O | > 100 µM | > 100 µM | – | > 100 µM | – | – | > 100 µM | – | > 100 µM | – | – | – | – | – | – | – |
| CC(=O)NC1(C(=O)N[C@@H](Cc2ccccc2)C(=O)NC2CCCCC2)Cc2ccc3ccccc3c2-c2c(ccc3ccccc23)C1 | > 100 µM | > 100 µM | > 100 µM | > 100 µM | – | > 100 µM | > 100 µM | > 100 µM and 40.3 µM | > 100 µM | – | 2.89 µM and 6.88 µM | 16.2 µM and 39.8 µM | 27.6 µM and > 100 µM | 9.72 µM and 23.1 µM | 8.66 µM and 31.3 µM | 5.39 µM and 15.2 µM |
| C[n+]1c2ccccc2c(/C=N\NS(=O)(=O)c2ccc(Cl)cc2)c2ccccc21 | > 100 µM | > 100 µM | > 100 µM | > 100 µM | – | > 100 µM | – | > 100 µM | > 100 µM | > 100 µM | – | – | – | – | – | – |
| Cc1ccc(S(=O)(=O)n2ccc(-c3ccc4ccn(S(=O)(=O)c5ccc(C)cc5)c4c3)c2)cc1 | > 100 µM | > 100 µM | > 100 µM | – | > 100 µM | > 100 µM | > 100 µM | > 100 µM | > 100 µM | 39.3 µM | – | – | – | – | – | – |
| CN[C@@H](C)[C@@H](O)c1ccccc1 | > 100 µM | > 100 µM | – | > 100 µM | > 100 µM | > 100 µM | > 100 µM | > 10 µM | > 100 µM | – | – | – | – | – | – | – |
| O=C(O)CCc1ccc2c(c1)CC1(Cc3ccccc3C1)C2 | > 100 µM | > 100 µM | > 100 µM | – | – | – | > 100 µM | > 100 µM | > 100 µM | > 100 µM | – | – | – | – | – | – |
| Nc1ccc2ccc(-c3ccc[nH]3)nc2n1 | > 100 µM | > 100 µM | > 100 µM | > 100 µM | – | > 100 µM | > 100 µM | – | > 100 µM | > 100 µM | – | – | – | – | – | – |
| COc1cc(CCN(C)C)cc(OC)c1OC | > 100 µM | > 100 µM | > 100 µM | – | > 100 µM | > 100 µM | > 100 µM | > 100 µM | – | > 100 µM | – | – | – | – | – | – |
| N#CC[N+]1(Cc2ccccn2)CCCC1 | > 100 µM | > 100 µM | > 100 µM | > 100 µM | > 100 µM | > 100 µM | > 100 µM | – | > 100 µM | > 100 µM | – | – | – | – | – | – |
| CCC(=O)/C(=C\I)c1ccccc1 | 19.9 µM | 4.28 µM | 30.2 µM | 6.45 µM | 18.4 µM | 40.3 µM | 11.2 µM | – | 3.33 µM | 3.01 µM | – | – | – | – | – | – |
| COc1c(C)c(C/C=C(\C)CC/C=C(\C)CC/C=C(\C)CCC=C(C)C)c(OC)c2ccccc12 | > 100 µM | > 100 µM | > 100 µM | – | > 100 µM | > 100 µM | > 100 µM | 64.1 µM | > 100 µM | > 100 µM | – | – | – | – | – | – |
| O=C1/C(=C/c2ccccc2)NC(=S)N1CN1CCCCC1 | > 100 µM | > 100 µM | > 100 µM | > 100 µM | > 100 µM | > 100 µM | > 100 µM | > 100 µM | > 100 µM | – | – | – | – | – | – | – |
| COc1ccc2c(c1)CCN1CCCc3ccccc3C21 (configuration not stated) | > 100 µM | > 100 µM | > 100 µM | > 100 µM | > 100 µM | > 100 µM | – | > 100 µM | > 100 µM | > 100 µM | – | – | – | – | – | – |
| COc1cccc(-c2nccc3c(OCc4ccccc4)c(OC)c(OC)cc23)c1 | > 100 µM | > 100 µM | > 100 µM | – | – | > 100 µM | – | > 100 µM | – | > 100 µM | – | – | – | – | – | – |
